We go through 20 compounds from ChEMBL document CHEMBL1909046, “DrugMatrix in vitro pharmacology data”.

The structures appear in SMILES notation.

Assay [1] in a line: DRUGMATRIX: Sodium/nucleoside co-transporter radioligand binding (ligand: nitrobenzylthioinosine). Format: cell membranes, Cavia porcellus, Dunkin-Hartley, Cerebral cortex, Membrane. To be noted: Not Active = under 50% inhibition at 10 µM.
Assay [2] is described as follows: DRUGMATRIX: Calcium Channel Type L, Benzothiazepine radioligand binding (ligand: [3H] Diltiazem). Format: cell membranes, Rattus norvegicus, Wistar, Brain, Membrane. To be noted: Not Active = under 50% inhibition at 10 µM.
Assay [3] deals with T1, C-X-C chemokine receptor type 2 (Homo sapiens, UniProt P25025).
T1 sequence (P25025 whole entry): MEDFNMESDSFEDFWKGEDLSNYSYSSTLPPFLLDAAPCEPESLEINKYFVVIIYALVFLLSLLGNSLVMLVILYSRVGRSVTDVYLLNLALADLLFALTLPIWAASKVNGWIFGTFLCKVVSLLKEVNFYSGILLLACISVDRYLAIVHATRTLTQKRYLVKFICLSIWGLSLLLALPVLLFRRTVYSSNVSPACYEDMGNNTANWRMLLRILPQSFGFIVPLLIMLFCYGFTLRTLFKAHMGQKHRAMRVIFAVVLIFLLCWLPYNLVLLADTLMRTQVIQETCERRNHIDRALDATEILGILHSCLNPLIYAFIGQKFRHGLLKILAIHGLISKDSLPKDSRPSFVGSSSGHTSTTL
Format: cell membranes, Membrane. To be noted: cho-k1.

Assay [4] can be described thus: DRUGMATRIX: Glutamate, NMDA, Phencyclidine radioligand binding (ligand: [3H] TCP). Format: cell membranes, Rattus norvegicus, Wistar, Cerebral cortex, Membrane. To be noted: Not Active = under 50% inhibition at 10 µM.
For assay [5], the target named is T2, 3-hydroxy-3-methylglutaryl-coenzyme A reductase (Homo sapiens, UniProt P04035).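 Further: enzyme inhibition assay of HMG-CoA reductase using radiolabeled [14C]HMG-CoA as substrate; in other assays of this panel Not Active means under 50% inhibition at 10 µM.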
T2 sequence (P04035 whole entry): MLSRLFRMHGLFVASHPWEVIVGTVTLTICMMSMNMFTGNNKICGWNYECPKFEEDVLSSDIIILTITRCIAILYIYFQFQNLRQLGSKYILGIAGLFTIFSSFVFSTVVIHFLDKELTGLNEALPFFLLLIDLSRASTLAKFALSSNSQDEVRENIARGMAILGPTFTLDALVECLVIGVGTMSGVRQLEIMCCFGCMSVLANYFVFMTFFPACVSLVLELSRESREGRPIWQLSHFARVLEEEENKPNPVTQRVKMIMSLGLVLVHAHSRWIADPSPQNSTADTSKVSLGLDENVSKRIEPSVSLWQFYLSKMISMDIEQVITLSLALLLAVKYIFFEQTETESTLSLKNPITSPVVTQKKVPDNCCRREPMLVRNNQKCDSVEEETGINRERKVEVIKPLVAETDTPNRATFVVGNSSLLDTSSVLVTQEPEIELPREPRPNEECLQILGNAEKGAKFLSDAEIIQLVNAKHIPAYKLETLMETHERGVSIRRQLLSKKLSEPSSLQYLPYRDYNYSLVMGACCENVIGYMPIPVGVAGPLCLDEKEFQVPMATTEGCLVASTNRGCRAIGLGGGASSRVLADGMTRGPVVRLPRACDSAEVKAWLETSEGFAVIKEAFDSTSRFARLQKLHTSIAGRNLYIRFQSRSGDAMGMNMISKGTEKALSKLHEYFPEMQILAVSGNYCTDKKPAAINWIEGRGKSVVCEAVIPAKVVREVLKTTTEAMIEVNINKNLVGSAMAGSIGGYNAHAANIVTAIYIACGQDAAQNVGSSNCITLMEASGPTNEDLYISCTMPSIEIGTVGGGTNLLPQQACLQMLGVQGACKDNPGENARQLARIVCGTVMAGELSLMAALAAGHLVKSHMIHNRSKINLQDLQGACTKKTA
Details: species or system Escherichia coli.

Assay [6] deals with T3, Muscarinic acetylcholine receptor M2 (Homo sapiens, UniProt P08172).
T3 sequence (P08172 whole entry): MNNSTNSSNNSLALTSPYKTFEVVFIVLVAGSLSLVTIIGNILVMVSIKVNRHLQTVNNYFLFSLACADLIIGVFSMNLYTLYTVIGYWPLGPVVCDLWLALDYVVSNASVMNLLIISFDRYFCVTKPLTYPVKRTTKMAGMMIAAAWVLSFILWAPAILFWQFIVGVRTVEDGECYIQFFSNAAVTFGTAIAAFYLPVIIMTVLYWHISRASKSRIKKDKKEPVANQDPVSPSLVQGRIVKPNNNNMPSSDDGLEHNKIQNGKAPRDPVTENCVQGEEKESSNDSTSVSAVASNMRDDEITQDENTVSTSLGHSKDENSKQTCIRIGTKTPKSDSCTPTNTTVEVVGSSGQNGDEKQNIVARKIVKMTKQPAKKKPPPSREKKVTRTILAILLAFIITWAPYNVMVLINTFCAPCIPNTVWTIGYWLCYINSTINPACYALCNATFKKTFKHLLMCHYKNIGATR
Format: cell membranes, CHO-K1, Membrane.

Broadly, the IC50 is the concentration at which inhibition is half-maximal. By Ki is commonly meant the equilibrium dissociation constant of an inhibitor or competing ligand from its target. `Cc1c(C)c2c(c(C)c1O)CCC(C)(CN1CCN(c3cc(N4CCCC4)nc(N4CCCC4)n3)CC1)O2` (stereo unspecified): the IC50 result in assay [1] is “Not Active”; in assay [2] (read-out: IC50), 1650 nM; in assay [3] it was “Not Active”; in assay [4], “Not Active”; in assay [5], “Not Active”; in assay [6] (cho-k1), “Not Active”. For the same compound, the figures for the Ki entry in assay [1], in assay [2] (read-out: Ki) and in assay [4] were “Not Active”, 1470 nM and “Not Active”, respectively.

For the compound `COc1ccc(CCN(C)CCCC(C#N)(c2ccc(OC)c(OC)c2)C(C)C)cc1OC` (stereo unspecified), the half-maximal inhibitory concentration (IC50) result in assay [1] is “Not Active”; in assay [2] (read-out: IC50), 14 nM; in assay [3], “Not Active”; in assay [4] it was “Not Active”; in assay [5] it was “Not Active”; in assay [6] (cho-k1) it was “Not Active”. Further, the results for the inhibition constant Ki result in assay [1], in assay [2] (read-out: Ki) and in assay [4] were “Not Active”, 12 nM and “Not Active”, respectively.

As to `CC(C)Cc1ccc([C@@H](C)C(=O)O)cc1` [(R)-IBUPROPHEN], the 50% inhibitory concentration (IC50) result in assay [1], in assay [2], in assay [3], in assay [4], in assay [5] and in assay [6] (cho-k1) was “Not Active” in each case. For the same compound, the inhibition constant (Ki) result in assay [1], in assay [2] and in assay [4] was “Not Active” throughout.

`CN(C)CCOC(c1ccccc1)c1ccccc1` [DIPHENHYDRAMINE]: the IC50 entry in assay [3] and in assay [5] was “Not Active” throughout.

In the case of `Clc1ccc(COC(Cn2ccnc2)c2ccc(Cl)cc2Cl)cc1` (stereo unspecified) [ECONAZOLE], the IC50 result in assay [3] and in assay [5] was “Not Active” in each case.

In the case of `CCN(CC)CCOc1ccc(/C(=C(/Cl)c2ccccc2)c2ccccc2)cc1` [ENCLOMIPHENE], the half-inhibitory concentration (IC50) result in assay [3] and in assay [5] was “Not Active” each time.

Consider `Fc1ccc(C(c2ccc(F)cc2)N2CCN(C/C=C/c3ccccc3)CC2)cc1` [FLUNARIZINE], for which the 50% inhibitory concentration (IC50) entry in assay [3], in assay [5] and in assay [6] (cho-k1) was “Not Active” each time.

In the case of `CNCCC(Oc1ccc(C(F)(F)F)cc1)c1ccccc1` (stereo unspecified) [FLUOXETINE], the half-maximal inhibitory concentration (IC50) entry in assay [3], in assay [5] and in assay [6] (cho-k1) was “Not Active” throughout.

With `Cc1ccc(NC(=O)c2ccc(CN3CCN(C)CC3)cc2)cc1Nc1nccc(-c2cccnc2)n1` [IMATINIB], the IC50 result in assay [3], in assay [5] and in assay [6] (cho-k1) was “Not Active” in each case.

Take `CC(C)Oc1ccc2c(=O)c(-c3ccccc3)coc2c1` [IPRIFLAVONE]: the 50% inhibitory concentration (IC50) result in assay [1], in assay [2], in assay [3], in assay [4], in assay [5] and in assay [6] (cho-k1) was “Not Active” throughout. Besides, the Ki result in assay [1], in assay [2] and in assay [4] was “Not Active” in each case.

For the compound `CC(C)NCC(O)c1ccc(O)c(O)c1` (stereo unspecified) [ISOPROTERENOL], the half-inhibitory concentration (IC50) entry in assay [1], in assay [2], in assay [3], in assay [4], in assay [5] and in assay [6] (cho-k1) was “Not Active” throughout. Further, the Ki result in assay [1], in assay [2] and in assay [4] was “Not Active” each time.

For the compound `CNC1(c2ccccc2Cl)CCCCC1=O` (stereo unspecified) [KETAMINE], the IC50 entry in assay [1] was “Not Active”; in assay [2] it was “Not Active”; in assay [3] it was “Not Active”; in assay [4] (read-out: IC50) it was 1010 nM; in assay [5], “Not Active”; in assay [6] (cho-k1) it was “Not Active”. The Ki entry in assay [1] is “Not Active”; in assay [2] it was “Not Active”; in assay [4] (read-out: Ki), 684 nM.

With `N#Cc1ccc(C(c2ccc(C#N)cc2)n2cncn2)cc1` [LETROZOLE], the IC50 entry in assay [1], in assay [2], in assay [3], in assay [4], in assay [5] and in assay [6] (cho-k1) was “Not Active” each time. The Ki result in assay [1], in assay [2] and in assay [4] was “Not Active” throughout.

Regarding `CCN1CCC[C@H]1CNC(=O)c1cc(S(N)(=O)=O)ccc1OC` [LEVOSULPIRIDE], the IC50 entry in assay [1], in assay [2], in assay [3], in assay [4], in assay [5] and in assay [6] (cho-k1) was “Not Active” each time. In addition, the Ki result in assay [1], in assay [2] and in assay [4] was “Not Active” each time.

As for `CCN(CC)CC(=O)Nc1c(C)cccc1C` [LIDOCAINE], the IC50 result in assay [1], in assay [2], in assay [3], in assay [4], in assay [5] and in assay [6] (cho-k1) was “Not Active” throughout. For the same compound, the Ki result in assay [1], in assay [2] and in assay [4] was “Not Active” throughout.

Turning to `O=C1Nc2ccc(Cl)cc2C(c2ccccc2Cl)=NC1O` (stereo unspecified) [LORAZEPAM], the half-inhibitory concentration (IC50) result in assay [1], in assay [2], in assay [3], in assay [4], in assay [5] and in assay [6] (cho-k1) was “Not Active” in each case. Also, the Ki result in assay [1], in assay [2] and in assay [4] was “Not Active” each time.

As for `CO[C@@H]1[C@@H](OC)[C@H](C)[C@@](O)(CC(=O)O)O[C@H]1[C@H](C)[C@H]1O[C@@]2(CC[C@@](C)([C@H]3CC[C@@](C)([C@@H]4O[C@@H]([C@H]5O[C@](C)(O)[C@H](C)C[C@@H]5C)C[C@@H]4O[C@@H]4C[C@H](OC)[C@@H](OC)[C@H](C)O4)O3)O2)C[C@H](O)[C@H]1C` [MADURAMICIN ACID], the half-inhibitory concentration (IC50) entry in assay [1], in assay [2], in assay [3], in assay [4], in assay [5] and in assay [6] (cho-k1) was “Not Active” each time. Moreover, the Ki result in assay [1], in assay [2] and in assay [4] was “Not Active” in each case.

For `COc1c2occc2cc2ccc(=O)oc12` [METHOXSALEN], the IC50 entry in assay [1], in assay [2], in assay [3], in assay [4], in assay [5] and in assay [6] (cho-k1) was “Not Active” in each case. The inhibitory constant (Ki) result in assay [1], in assay [2] and in assay [4] was “Not Active” each time.

With `C[C@H]1C[C@@H]2[C@H]([C@@H](O)C[C@@]3(C)[C@H]2CC[C@]3(O)C(=O)CO)[C@@]2(C)C=CC(=O)C=C12` [METHYLPREDNISOLONE], the 50% inhibitory concentration (IC50) entry in assay [1], in assay [2], in assay [3], in assay [4], in assay [5] and in assay [6] (cho-k1) was “Not Active” each time. Further, the Ki entry in assay [1], in assay [2] and in assay [4] was “Not Active” in each case.

As for `CN[C@H]1CC[C@@H](c2ccc(Cl)c(Cl)c2)c2ccccc21` [SERTRALINE], the IC50 result is “Not Active” in assay [3], “Not Active” in assay [5] and 2770 nM in assay [6] (read-out: IC50). Further, the Ki in assay [6] (read-out: Ki) is 984 nM.
